Data taken from patent publication US9493537B2, “Compounds with reduced ring size for use in diagnosing and treating melanoma, including metastatic melanoma and methods related to same” (STC.UNM, priority 2009, dated 2016).
One block for each compound: values may come before it. Positions of bridges follow the written chain, without caps; N, C: chain ends. Non-standard residues stand in square brackets, D forms with d. Residues, ends and D or L forms follow the SMILES beside them. No end group written: not given here. *: point of attachment. DOTA = O=C(O)CN1CCN(CC(=O)O)CCN(CC(=O)*)CCN(CC(=O)O)CC1; Nle = CCCC[C@H](N)C(=O)O

Columns and labels:
[1] = target: T1, MC1 receptor (Mus musculus, UniProt Q01727); assay: In vitro competitive binding assay with ^125I-Tyr^2-NDP-MSH in B16/F1 melanoma cells; parameters: host or cells: B16/F1 murine melanoma cells; species or system murine
Procedure: B16/F1 cells were harvested and seeded into a 24-well cell culture plate (5×10^5 cells/well) and incubated at 37° C. overnight. […] The reaction medium was aspirated after the incubation. The cells were rinsed twice with 0.5 mL of ice-cold pH 7.4, 0.2% BSA/0.01 M phosphate buffered saline (PBS) and lysed in 0.5 mL of 1 N NaOH for 5 minutes. The activities associated with cells were measured in a Wallac 1480 automated gamma counter (PerkinElmer, N.J.). The IC50 value of the peptide was calculated using Prism software (GraphPad Software, La Jolla, Calif.).
B16/F1 cells in 24-well cell culture plates (5×10^5 cells/well) were incubated at room temperature (25° C.) for 2 h with approximately 60,000 cpm of ^125I-Tyr^2-NDP-MSH in the presence of 10^−12 to 10^−5 M of each peptide in 0.3 mL of binding medium {Dulbecco's Modified Eagle's Medium with 25 mM N-(2-hydroxyethyl)-piperazine-N′-(2-ethanesulfonic acid), pH 7.4, 0.2% bovine serum albumin (BSA), 0.3 mM 1,10-phenathroline}. The medium was aspirated after the incubation. […] The activities associated with cells were measured in a Wallac 1480 automated gamma counter (PerkinElmer, Waltham, Mass.). The IC50 value of each peptide was calculated using Prism software (GraphPad Software, La Jolla, Calif.).

[2] = In vitro serum stability in mouse serum; format: in vitro ADME; conditions: 37° C., 24 h
Procedure: After the incubation, 10 μL of 0.5% EDTA aqueous solution was added into the reaction vial to scavenge potential unbound ^111In^3+ ions. The radiolabeled peptide was purified to single species by Waters RP-HPLC (Milford, Mass.) on a Grace Vydac C-18 reverse phase analytical column (Deerfield, Ill.) using a 20-minute gradient of 18-28% acetonitrile in 20 mM HCl aqueous solution with a flow rate of 1.0 mL/min. Purified peptide sample was purged with N2 gas for 20 minutes to remove the acetonitrile. The pH of final solution was adjusted to 7.4 with 0.1 N NaOH and sterile normal saline for animal studies.
Briefly, 50 μL of ^111InCl3 (37-74 MBq in 0.05 M HCl aqueous solution), 10 μL of 1 mg/mL peptide aqueous solution and 400 μL of 0.5 M NH4OAc (pH 4.5) were added into a reaction vial and incubated at 75° C. for 45 mins. After the incubation, 10 μL of 0.5% EDTA (ethylenediaminetetraacetic acid) aqueous solution was added into the reaction vial to scavenge potential unbound ^111In^3+ ions. The radiolabeled complexes were purified to single species by Waters RP-HPLC (Milford, Mass.) on a Grace Vydac C-18 reverse phase analytical column (Deerfield, Ill.) using the following gradient at a 1 mL/min flowrate. The mobile phase consisted of solvent A (20 mM HCl aqueous solution) and solvent B (100% CH3CN). The gradient was initiated and kept at 82:18 A/B for 3 mins followed by a linear gradient of 82:18 A/B to 72:28 A/B over 20 mins. Then, the gradient was changed from 72:28 A/B to 10:90 A/B over 3 mins followed by an additional 5 mins at 10:90 A/B. Thereafter, the gradient was changed from 10:90 AB to 82:18 AB over 3 mins. Each purified peptide sample was purged with N2 gas for 20 mins to remove the acetonitrile. The pH of the final solution was adjusted to 7.4 with 0.1 N NaOH and sterile saline for animal studies. In vitro serum stability of ^111In-DOTA-GGNle-CycMSHhex and ^111In-DOTA-GENle-CycMSHhex were determined by incubation in mouse serum at 37° C. for 24 h and monitored for degradation by RP-HPLC.

[3] = Biodistribution in B16/F1 melanoma-bearing C57 mice; format: in vivo; conditions: female, C57, mouse, iv, 0.037 MBq, total radioactivity; for tissue to tissue ratio at 4 h: 4 h post-injection
Procedure: (§1) All the animal studies were conducted in compliance with Institutional Animal Care and Use Committee approval. The mice were housed five animals per cage in sterile micro-isolator cages in a temperature- and humidity-controlled room with a 12-h light/12-h dark schedule. […] C57 mice were subcutaneously inoculated on the right flank with 1×10^6 B16/F1 cells. The weight of tumors reached approximately 0.2 g 10 days post cell inoculation. […] Groups of 5 mice were sacrificed at 0.5, 2, 4 and 24 h post-injection, and tumors and organs of interest were harvested, weighed and counted. Blood values were taken as 6.5% of the whole-body weight. […] The mice were sacrificed at 2 h post-injection. The tumor and organs of interest were harvested, weighed and counted.
(§2) All animal studies were conducted in compliance with Institutional Animal Care and Use Committee approval. The pharmacokinetics of ^111In-DOTA-GGNle-CycMSHhex and ^111In-DOTA-GENle-CycMSHhex were determined in B16/F1 melanoma-bearing C57 female mice (Harlan, Indianapolis, Ind.). The C57 mice were subcutaneously inoculated with 1×10^6 B16/F1 cells on the right flank for each mouse to generate B16/F1 melanomas. Ten days post inoculation, the tumor weights reached approximately 0.2 g. Each melanoma-bearing mouse was injected with 0.037 MBq of ^111In-DOTA-GGNle-CycMSHhex or ^111In-DOTA-GENle-CycMSHhex via the tail vein. Groups of 5 mice were sacrificed at 0.5, 2, 4 and 24 h post-injection, and tumors and organs of interest were harvested, weighed and counted. Blood values were taken as 6.5% of the whole-body weight. The specificities of the tumor uptake of ^111In-DOTA-GGNle-CycMSHhex and ^111In-DOTA-GENle-CycMSHhex were determined by co-injecting 10 μg (6.07 nmol) of unlabeled NDP-MSH which is a linear α-MSH peptide analogue with picomolar MC1 receptor binding affinity.

[4] = test system: B16/F1 melanoma; assay: as above; format: in vivo; conditions: for tumor uptake blocked by NDP-MSH co-injection: 10 μg (6.07 nmol) NDP-MSH
Procedure: as §1, §2

[5] = Metabolites in urine and melanoma by RP-HPLC; format: in vivo, C57 mice; conditions: 2 h post-injection
Procedure: The mouse used for the imaging study (2 h post-injection) described above was euthanized and the urine was collected for identifying the metabolites. The urinary sample was centrifuged at 16,000 g for 5 min prior to the HPLC analysis. The radioactive metabolite in the urine was analyzed by injecting aliquots of urine into the HPLC. A 20-minute gradient of 18-28% acetonitrile/20 mM HCl was used for the urine analysis.
Both melanoma and urine were collected from the mouse used for SPECT/CT imaging to analyze the metabolites of ^111In-DOTA-GGNle-CycMSHhex in melanoma and urine. The tumor was homogenized by a VWR homogenizer for 5 mins. Equal volume of ethanol was added into the tumor sample. The tumor sample was vortexed and then centrifuged at 16,000 g for 5 mins. The supernatant was transferred into a glass test tube and purged with N2 gas for 20 mins to remove the ethanol. Aliquots of the supernatant were injected into HPLC. The urinary sample was directly centrifuged at 16,000 g for 5 mins prior to the HPLC analysis. Thereafter, aliquots of the urine were injected into HPLC. The HPLC gradient described above was used for the analyses of metabolites.

[6] = test system: B16/F1 melanoma; conditions: references 19, 20; cited from earlier work
[7] = test system: B16/F1 melanoma; conditions: mouse, in vivo; cited from earlier work
[8] = target: T1, MC1 receptor; conditions: cited from earlier work
[9] = target: MC1 receptor (Homo sapiens, UniProt Q01726); conditions: references 25, 26; cited from earlier work
Sequence of MC1 receptor (Homo sapiens, UniProt Q01726) (Q01726 whole entry): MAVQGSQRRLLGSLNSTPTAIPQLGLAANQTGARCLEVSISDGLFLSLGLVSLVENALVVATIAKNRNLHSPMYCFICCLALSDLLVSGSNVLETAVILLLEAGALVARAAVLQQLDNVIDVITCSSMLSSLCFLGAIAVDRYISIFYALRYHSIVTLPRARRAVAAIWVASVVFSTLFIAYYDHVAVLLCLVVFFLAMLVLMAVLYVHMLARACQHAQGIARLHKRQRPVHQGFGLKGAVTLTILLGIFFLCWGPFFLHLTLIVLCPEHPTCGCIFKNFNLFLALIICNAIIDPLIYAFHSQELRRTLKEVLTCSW

T1 sequence (Q01727 whole entry): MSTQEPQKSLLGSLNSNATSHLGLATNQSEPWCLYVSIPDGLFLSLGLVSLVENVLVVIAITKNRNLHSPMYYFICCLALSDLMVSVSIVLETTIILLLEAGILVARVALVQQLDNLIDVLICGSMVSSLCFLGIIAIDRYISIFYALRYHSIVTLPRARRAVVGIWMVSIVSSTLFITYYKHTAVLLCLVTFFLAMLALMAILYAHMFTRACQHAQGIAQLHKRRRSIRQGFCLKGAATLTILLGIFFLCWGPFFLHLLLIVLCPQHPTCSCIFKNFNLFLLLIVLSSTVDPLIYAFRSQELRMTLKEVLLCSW

lower receptor binding affinity than DOTA-GGNle-CycMSHhex and DOTA-GENle-CycMSHhex [1]: at least 78 fold
Compound: CCCC[C@H](NC(=O)CN1CCN(CC(=O)O)CCN(CC(=O)O)CCN(CC(=O)O)CC1)C(=O)NCC(=O)N[C@@H](CCC(=O)O)C(=O)N[C@H]1CC(=O)NCCCC[C@@H](C(N)=O)NC(=O)[C@H](Cc2c[nH]c3ccccc23)NC(=O)[C@H](CCCNC(=N)N)NC(=O)[C@@H](Cc2ccccc2)NC(=O)[C@H](Cc2c[nH]cn2)NC1=O [DOTA-NleGE-CycMSHhex] ({DOTA}-[Nle]GEDH[dF]RWK-NH2; lactam 4-9)

serum stability by RP-HPLC [2]: stable
tissue uptake at 2 h ([3]; liver, 2 h post-injection, read-out: Liver uptake): < 0.61 %ID/g
tissue to tissue ratio at 4 h ([3]; tumor and kidney, tumor/kidney uptake ratio, times that of ^111In-DOTA-Nle-CycMSHhex): 1.61
tissue to tissue ratio at 2 h ([3]; tumor and kidneys, tumor/kidney uptake ratio, times that of ^111In-DOTA-Nle-CycMSHhex, 2 h post-injection): 1.37
tissue to tissue ratio at 4 h ([3]; tumor and liver, tumor/liver uptake ratio, times that of ^111In-DOTA-Nle-CycMSHhex): 3.13
tumor uptake blocked by NDP-MSH co-injection ([4]; 2 h post-injection): Approximately 98%
Kidneys uptake ([4]; 0.5 h post-injection): 15.19±2.75 % ID/g
Tumor uptake ([4]; 0.5 h post-injection): 18.39±2.22 % ID/g
Tumor/Skin uptake ratio ([4]; 0.5 h post-injection): 8.51
tumor uptake, times that of ^111In-DOTA-GENle-CycMSHhex ([4]; 0.5 h post-injection): 2 times
Kidneys uptake ([4]; 2 h post-injection): 6.84±0.92 % ID/g
Tumor uptake ([4]; 2 h post-injection): 19.05±5.04 % ID/g
Tumor/Skin uptake ratio ([4]; 2 h post-injection): 70.56
tumor uptake, times that of ^111In-DOTA-GENle-CycMSHhex ([4]; 2 h post-injection): 2.5 times
Tumor uptake ([4]; 4 h post-injection): 18.6±3.56 % ID/g
Tumor/Liver uptake ratio ([4]; 4 h post-injection): 31.0
Tumor/Skin uptake ratio ([4]; 4 h post-injection): 68.89
tumor uptake, times that of ^111In-DOTA-GENle-CycMSHhex ([4]; 4 h post-injection): 3 times
Tumor uptake ([4]; 24 h post-injection): 6.77±0.84 % ID/g
Tumor/Skin uptake ratio ([4]; 24 h post-injection): 26.04
melanoma metabolites by HPLC ([5]; tumor): remained intact
urinary metabolites by HPLC ([5]; urine): remained intact
Compound: CCCC[C@H](NC(=O)CNC(=O)CNC(=O)CN1CCN(CC(=O)O)CCN(CC(=O)O)CCN(CC(=O)O)CC1)C(=O)N[C@H]1CC(=O)NCCCC[C@@H](C(N)=O)NC(=O)[C@H](Cc2c[nH]c3ccccc23)NC(=O)[C@H](CCCNC(=N)N)NC(=O)[C@@H](Cc2ccccc2)NC(=O)[C@H](Cc2c[nH]cn2)NC1=O [^111In-DOTA-GGNle-CycMSHhex, metal not drawn] ({DOTA}-GG[Nle]DH[dF]RWK-NH2; lactam 4-9)

serum stability by RP-HPLC [2]: stable
tumor uptake blocked by NDP-MSH co-injection ([4]; 2 h post-injection): 95.6%
Kidneys uptake ([4]; 0.5 h post-injection): 9.06±2.20 % ID/g
Tumor/Skin uptake ratio ([4]; 0.5 h post-injection): 7.21
Kidneys uptake ([4]; 2 h post-injection): 5.54±0.63 % ID/g
Tumor/Skin uptake ratio ([4]; 2 h post-injection): 24.30
Tumor/Skin uptake ratio ([4]; 4 h post-injection): 44.17
Tumor/Skin uptake ratio ([4]; 24 h post-injection): 27.50
Compound: CCCC[C@H](NC(=O)[C@H](CCC(=O)O)NC(=O)CNC(=O)CN1CCN(CC(=O)O)CCN(CC(=O)O)CCN(CC(=O)O)CC1)C(=O)N[C@H]1CC(=O)NCCCC[C@@H](C(N)=O)NC(=O)[C@H](Cc2c[nH]c3ccccc23)NC(=O)[C@H](CCCNC(=N)N)NC(=O)[C@@H](Cc2ccccc2)NC(=O)[C@H](Cc2c[nH]cn2)NC1=O [^111In-DOTA-GENle-CycMSHhex, metal not drawn] ({DOTA}-GE[Nle]DH[dF]RWK-NH2; lactam 4-9)

Compound: {DOTA}-GEK[Nle]EH[dF]RWGRPVD (lactam 3-14) [^111In-DOTA-GlyGlu-CycMSH, reference compound]
visualization of flank primary and pulmonary metastatic melanoma lesions by SPECT/CT [6]: clearly visualized
tumor radioactivity at 2 h remaining in tumors at 24 h [7]: 22.8%

Compound: [Nle^4, D-Phe^7]-α-MSH [NDP-MSH]
affinity for the MC1 receptor [8]: picomolar

Compound: Ac-Nle-c[Asp-His-DPhe-Arg-Trp-Lys(CONH2)] [MT-II]
MC1 receptor binding affinity compared with the native α-MSH peptide [9]: higher
MC1 receptor dissociation rate compared with the native α-MSH peptide [9]: slower
